Assay results as given in patent US20100261666A1, “COMPOSITIONS AND METHODS FOR THE TREATMENT OF MYOCARDIAL DYSFUNCTION ASSOCIATED WITH SIRS OR SEPSIS” (THE BOARD OF TRUSTEES OF THE UNIVERSITY OF ILLINOIS, priority 2009, published 2010).

Assays:
rat isolated hearts = assay: Langendorff rat isolated heart procedure: left ventricular function and coronary flow; assay type: in vivo; settings: for Coronary flow Baseline / Coronary flow 30 min / Coronary flow 60 min / Coronary flow 90 min / Coronary flow 120 min / Coronary flow 150 min: mean ± SEM
Method: Male Sprague Dawley, virus-free rats (Harlan) were used in each of the examples presented herein. After arrival and a brief acclimation (72 hours minimum), animals were randomized into control or experimental groups. The control and experimental protocols (Table 1) and experimental group treatments (Table 2) are described below.
Rat isolated heart experiments were performed via Langendorff method. […] CON hearts received vehicle (IP sterile water). […] Heparin was allowed to circulate for 60 seconds at which time a thoracotomy was performed to expose the heart. The heart was quickly removed, placed in ice cold Krebs-Ringers bicarbonate buffer (KRB, described below) and weighed. The ascending aorta was rapidly cannulated and the heart was attached, via the cannula, to the perfusion apparatus. The hearts were perfused with a modified KRB containing (102 mM NaCl, 4.75 mM KCl, 1.20 mM KH2PO4, 1.18 mM MgSO4, 22.75 mM NaHCO3, 11.50 mM Glucose, 4.96 mM Na-Pyruvate, 5.40 mM Na-Fumarate and 1 mM CaCl2), at a temperature of 37.0° C., and pH 7.4 as maintained by vigorous bubbling with 95%/5% O2/CO2.
At all times, hearts were perfused with KRB at a pressure of 72-78 mmHg set by the height of the water-jacketed reservoir. The left atrium of the heart was then removed, just above the left atrio-ventricular valve. A latex balloon was used to measure left ventricular pressure as an index of cardiac performance. The balloon was constructed by filling the reservoir tip of a latex condom with degassed water. PE-50 tubing, pre-filled with degassed water and attached to a stopcock/Hamilton screw-top syringe assembly, was flanged and placed into the tip of the condom. Surgical silk (5-0) was used to gather the condom tip around the flanged end of the tubing and form a seal, at which time the excess latex was removed.
The balloon/stopcock assembly was attached to a pressure transducer (Spectramed-Statham) and inserted into the left ventricle to record cardiac performance data via Windaq (DATAQ, CA). Two platinum electrodes, connected to a electrical stimulator (Grass Model 92C), were placed at the lateral edges of the right atria in order to pace the heart at 300 BPM using a voltage 10% greater than that required to capture rhythm. The volume in the latex balloon was increased to produce a left ventricular diastolic pressure (LVdiaP) of 10.0 mmHg.
The heart was then perfused normally for 30 minutes, a period designated as the equilibration phase. During this phase of perfusion hearts had to maintain a LVdiaP of 10.0±2.0 mmHg to be included in the study. At the end of thirty minutes, baseline measurements of coronary flow and left ventricular pressure were made. This time point was designated as 0 minutes. At this time, hearts receiving LPS (10 μg/mL/min) were infused via injection port/stop cock assembly, into the KRB perfusion stream, just above the aortic cannula for a total infusion time of 60 minutes. Hearts not receiving LPS were infused with vehicle (sterile water, 1.25% coronary flow (mL)·min). At 60 minutes, infusion was halted and normal KRB perfusion continued for 90 minutes (total experimental time post-equilibration=150 minutes).
Measurements of coronary flow and left ventricular pressure were taken every 30 minutes starting at 0 minutes. At the termination of the experiment, the left ventricle was rapidly excised from the whole heart, flash frozen in liquid nitrogen and stored at −80.0° C. for further analysis.
Statistical analysis was performed on data generated from these experimental protocols using a one-way analysis of variance (one-way ANOVA) with pair wise comparisons (Fisher Least Significant Difference test (LSD)). Data is presented herein as mean±standard error of the mean (SEM).
The Fisher LSD was used to determine whether 30 and 150 min values differed from baseline values. In addition, changes from baseline values (e.g., 30 or 150 minute value−respective baseline value) were compared among groups.

TNF-α = assay: Real time PCR, left ventricular TNF-α mRNA expression; assay type: in vivo, rat; settings: LPS infusion
Method: Total RNA was isolated from left ventricular tissue using the SV Total Isolation System (Promega Corp., Madison, Wis.). Isolation was performed according to manufacturer instructions and followed by DNAse treatment to eliminate residual genomic DNA contamination. RNA integrity was determined by loading 1.0 μg of total RNA isolate from each sample onto a 1.0% agarose gel and staining with ethidium bromide to visualize the 18 and 28s RNA bands. The amount of RNA recovered was determined using the Ribogreen RNA Quantification Kit (Molecular Probes, Eugene, Oreg.). […]
Specific primer sequences, GenBank accession numbers, Sequence Identifiers, and product sizes are disclosed in Table 5. […] For real-time PCRs, SYBR PCR Master Mix (Bio-Rad Laboratories, Hercules, Calif.) was used, and thermocycling and fluorescence detection was performed using a Stratagene Mx3000p real-time PCR machine.
After confirmation of primer efficiency and specificity, the concentrations of purified products generated by standard PCR were determined using Molecular Probe's Picogreen DNA quantification kit, and PCR products were serially diluted to obtain standards containing 10^1, 10^2, 10^3, 10^4, 10^5, and 10^6 copies of synthetic template. […]

ADA1 = assay: Real time PCR, left ventricular ADA1 mRNA expression; assay type: in vivo, rat
Method: Total RNA was isolated from left ventricular tissue using the SV Total Isolation System (Promega Corp., Madison, Wis.). Isolation was performed according to manufacturer instructions and followed by DNAse treatment to eliminate residual genomic DNA contamination. RNA integrity was determined by loading 1.0 μg of total RNA isolate from each sample onto a 1.0% agarose gel and staining with ethidium bromide to visualize the 18 and 28s RNA bands. The amount of RNA recovered was determined using the Ribogreen RNA Quantification Kit (Molecular Probes, Eugene, Oreg.). 1 μg of total RNA was reverse transcribed in a […] using random hexamer primers with enzyme and buffers supplied in the cDNA First Strand Synthesis kit (MRI Fermentas, Hanover, Md.). First strand cDNA was treated with ribonuclease H to remove residual RNA.
Real time PCR (qPCR) was performed to measure RNA transcripts for left ventricular TNF-α and ADA1. Three housekeeping genes were selected as follows to produce an intergroup correction factor for target transcripts: Cyclophilin A, hypoxanthine-guanine physphoribosyltransferase (HPRT), and β-actin. Primers were selected using Primer 3 software (Rosen and Skaletsky, Whitehead Institute for Biomedical Research) with the rat genomic sequences for TNF gene, ADA gene, HPRT gene, β-actin gene, and Cyclophilin gene as templates. BLAST (National Center for Biotechnology Information) searches were used to verify that the selected primers were specific for the designated target.
Specific primer sequences, GenBank accession numbers, Sequence Identifiers, and product sizes are disclosed in Table 5. Primers were used in a standard PCR with the 2× Master Mix PCR reagent (MRI Fermentas) and cDNA from the tissue of interest as a template. The thermocycling profile consisted of one cycle of 95° C. for 10 minutes, followed by 41 cycles of 95° C. for 1 minute, 61° C. for 1 minute, and 72° C. for 1 minute and a final cycle of 72° C. for 10 minutes. Products were run on a 1.0% agarose gel and stained with ethidium bromide to confirm that only one band was amplified and that no primer dimers were present. PCR products were then column-purified (QIAGEN, Valencia, Calif.) and sequenced to confirm target specificity. For real-time PCRs, SYBR PCR Master Mix (Bio-Rad Laboratories, Hercules, Calif.) was used, and thermocycling and fluorescence detection was performed using a Stratagene Mx3000p real-time PCR machine.
Standards were then amplified by real-time PCR, and standard curves were generated using Stratagene Mx3000P software. […]
A housekeeping gene was selected for normalization of the real-time PCR data for the TNF-α and ADA1 transcripts. Three potential gene (mRNA) products were analyzed for this purpose: CYC, β-actin and HPRT.

ADA = ADA (Homo sapiens, UniProt P00813); settings: cited from earlier work
Sequence of ADA (P00813 whole entry, species assumed): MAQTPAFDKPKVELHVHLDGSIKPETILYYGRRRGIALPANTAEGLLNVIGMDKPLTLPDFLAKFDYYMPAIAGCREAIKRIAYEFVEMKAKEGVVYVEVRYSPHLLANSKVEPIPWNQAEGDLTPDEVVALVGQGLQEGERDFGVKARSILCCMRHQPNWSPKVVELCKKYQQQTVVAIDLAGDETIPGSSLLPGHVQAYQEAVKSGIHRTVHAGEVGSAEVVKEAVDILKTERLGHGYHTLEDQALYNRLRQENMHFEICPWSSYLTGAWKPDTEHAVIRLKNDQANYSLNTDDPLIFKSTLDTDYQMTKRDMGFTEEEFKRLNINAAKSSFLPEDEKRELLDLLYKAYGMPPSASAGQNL

Q: For `Oc1ncnc2[nH]ncc12` [ALO, allopurinol], which “Coronary flow Baseline” value (rat isolated hearts; LPS infusion 10 μg/mL/min (-LPS group)) is on record?
A: Its value is 24.1 ± 1.3 mL/min.

Q: What about the “Coronary flow 30 min” value (rat isolated hearts; LPS infusion (-LPS group)) of the same compound?
A: The value was 24.2 ± 1.1 mL/min.

Q: And the “Coronary flow 60 min” value (rat isolated hearts; LPS infusion (-LPS group))?
A: Its value is 24.7 ± 1.4 mL/min.

Q: And the “Coronary flow 90 min” value (rat isolated hearts; LPS infusion (-LPS group))?
A: Its value is 24.5 ± 1.4 mL/min.

Q: And the “Coronary flow 120 min” value (rat isolated hearts; LPS infusion (-LPS group))?
A: Its value is 23.4 ± 1.7 mL/min.

Q: What about the “Coronary flow 150 min” value (rat isolated hearts; LPS infusion (-LPS group)) of the same compound?
A: The value was 22.5 ± 1.7 mL/min.

Q: And the “+dP/dt compared to respective baseline” value (rat isolated hearts; LPS infusion, 30 minutes)?
A: Its value is “significantly greater”.

Q: What about the “LV developed pressure compared to respective baseline” value (rat isolated hearts; LPS infusion, 30 minutes) of the same compound?
A: The value was “significantly greater”.

Q: And the “LV diastolic pressure compared to respective baseline” value (rat isolated hearts; LPS infusion, 30 minutes)?
A: The value was “significantly decreased”.

Q: What about the “increase in LV developed pressure compared to LPS group” value (rat isolated hearts; LPS infusion, 30 minutes) of the same compound?
A: Its value is “of a similar magnitude”.

Q: And the “increase in LV systolic pressure compared to LPS group” value (rat isolated hearts; LPS infusion, 30 minutes)?
A: The value was “of a similar magnitude”.

Q: What about the “increase in −dP/dt compared to LPS group” value (rat isolated hearts; LPS infusion, 30 minutes) of the same compound?
A: Its value is “similar”.

Q: What about the “+dP/dt compared to LPS hearts” value (rat isolated hearts; LPS infusion, 150 minutes) of the same compound?
A: The value was “did not statistically change”.

Q: And the “+dP/dt compared to respective baseline” value (rat isolated hearts; LPS infusion, 150 minutes)?
A: The value was “significantly decreased”.

Q: What about the “LV developed pressure compared to LPS hearts” value (rat isolated hearts; LPS infusion, 150 minutes) of the same compound?
A: Its value is “of a similar magnitude”.

Q: What about the “LV developed pressure compared to respective baseline” value (rat isolated hearts; LPS infusion, 150 minutes) of the same compound?
A: The value was “significantly decreased”.

Q: And the “LV diastolic pressure (LPS-induced increase) compared to LPS hearts” value (rat isolated hearts; LPS infusion, 150 minutes)?
A: The value was “attenuation”.

Q: What about the “LV systolic pressure compared to respective baseline” value (rat isolated hearts; LPS infusion, 150 minutes) of the same compound?
A: Its value is “significantly decreased”.

Q: What about the “−dP/dt compared to LPS alone / among groups” value (rat isolated hearts; LPS infusion, 150 minutes) of the same compound?
A: Its value is “did not significantly affect”.

Q: What about the “−dP/dt compared to respective baseline” value (rat isolated hearts; LPS infusion, 150 minutes) of the same compound?
A: The value was “significantly decreased”.

Q: And the “Coronary flow 30 min” value (rat isolated hearts; vehicle infusion (-CON group))?
A: Its value is 25.9 ± 1.8 mL/min.

Q: And the “Coronary flow 60 min” value (rat isolated hearts; vehicle infusion (-CON group))?
A: Its value is 25.1 ± 1.9 mL/min.

Q: And the “Coronary flow 90 min” value (rat isolated hearts; vehicle infusion (-CON group))?
A: Its value is 24.7 ± 1.9 mL/min.

Q: And the “Coronary flow 120 min” value (rat isolated hearts; vehicle infusion (-CON group))?
A: Its value is 24.1 ± 1.6 mL/min.

Q: What about the “Coronary flow 150 min” value (rat isolated hearts; vehicle infusion (-CON group)) of the same compound?
A: The value was 22.6 ± 1.4 mL/min.

Q: And the “Coronary flow Baseline” value (rat isolated hearts; vehicle infusion (-CON group))?
A: Its value is 25.4 ± 2.1 mL/min.

Q: And the “LV diastolic pressure compared to respective baseline” value (rat isolated hearts; vehicle infusion, 30 minutes)?
A: The value was “No changes”.

Q: What about the “LV developed pressure compared to respective baseline” value (rat isolated hearts; vehicle infusion, 150 minutes) of the same compound?
A: Its value is “No changes”.

Q: What about the “LV diastolic pressure compared to respective baseline” value (rat isolated hearts; vehicle infusion, 150 minutes) of the same compound?
A: Its value is “remained unchanged”.

Q: What about the “LV systolic pressure compared to respective baseline” value (rat isolated hearts; vehicle infusion, 150 minutes) of the same compound?
A: The value was “no change”.

Q: And the “−dP/dt compared to respective baseline” value (rat isolated hearts; vehicle infusion, 150 minutes)?
A: Its value is “remained unchanged”.

Q: And the “left ventricular TNF-α mRNA expression compared to LPS hearts” value (TNF-α)?
A: The value was “significantly lower”.

Q: What about the “left ventricular ADA1 mRNA expression (copy numbers) compared to CON and LPS hearts” value (ADA1; LPS infusion) of the same compound?
A: Its value is “No significant differences”.

Q: And the “left ventricular ADA1 mRNA expression (copy numbers) compared to CON and LPS hearts” value (ADA1; vehicle infusion)?
A: The value was “No significant differences”.

Q: Which Ki (ADA) does the source give for `OC[C@H]1O[C@@H](n2cnc3c2N=CNCC3O)C(O)[C@H]1O` (some centres unmarked) [coformycin] here?
A: The Ki was 0.01 nM.
